Residue numbers refer to the chain shown, from its start.
Tests used:
Test in all cases: E. coli hemG growth inhibition by herbicide, AtPPO1 variant
Format in all cases: cell-based
Settings in all cases: read-out: percentage growth inhibition
AtPPO1 V365M = biological target: T1, AtPPO1 V365M (Arabidopsis thaliana, UniProt P55826, V365M)
T1 construct: expressed in transfected cells; host or cells: E. coli BL21(DE3) hemG (pET24a, T7 promoter)
T1 sequence (P55826 35-537 V365M): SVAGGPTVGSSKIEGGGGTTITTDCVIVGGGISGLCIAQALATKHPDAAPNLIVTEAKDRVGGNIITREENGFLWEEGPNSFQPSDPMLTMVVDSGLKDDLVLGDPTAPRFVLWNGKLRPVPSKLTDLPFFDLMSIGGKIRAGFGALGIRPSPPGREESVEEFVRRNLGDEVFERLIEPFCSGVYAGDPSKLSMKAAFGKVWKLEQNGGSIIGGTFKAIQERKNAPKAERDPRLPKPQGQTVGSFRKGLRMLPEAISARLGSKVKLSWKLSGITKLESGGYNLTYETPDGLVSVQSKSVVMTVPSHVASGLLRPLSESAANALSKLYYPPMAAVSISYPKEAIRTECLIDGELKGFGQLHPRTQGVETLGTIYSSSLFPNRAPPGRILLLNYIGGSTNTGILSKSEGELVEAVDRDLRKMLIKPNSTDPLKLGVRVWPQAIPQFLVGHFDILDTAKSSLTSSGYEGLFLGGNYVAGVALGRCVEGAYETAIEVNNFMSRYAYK
In short: (§1)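 AtPPO1 variants from a site-saturation library, codon-optimised and T7-driven in pET24a, were expressed in E. coli BL21(DE3) lacking hemG (hemG replaced by CmR). Growth in Terrific broth with 0.1 mM IPTG plus 6.25 ppm herbicide 0 or E, 0.78 ppm herbicide B, or DMSO was read as OD600 after 24 h at 37° C; inhibition was calculated against the DMSO culture.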

AtPPO1 T431R = biological target: T2, AtPPO1 T431R (Arabidopsis thaliana, UniProt P55826, T431R)
T2 construct: expressed in transfected cells; host or cells: E. coli BL21(DE3) hemG (pET24a, T7 promoter)
T2 sequence (P55826 35-537 T431R): T1 sequence (P55826 35-537 V365M) with M331V, T397R
In short: as §1

AtPPO1 P413G = biological target: T3, AtPPO1 P413G (Arabidopsis thaliana, UniProt P55826, P413G)
T3 construct: expressed in transfected cells; host or cells: E. coli BL21(DE3) hemG (pET24a, T7 promoter)
T3 sequence (P55826 35-537 P413G): T1 sequence (P55826 35-537 V365M) with M331V, P379G
In short: as §1

AtPPO1 G404A = biological target: T4, AtPPO1 G404A (Arabidopsis thaliana, UniProt P55826, G404A)
T4 construct: expressed in transfected cells; host or cells: E. coli BL21(DE3) hemG (pET24a, T7 promoter)
T4 sequence (P55826 35-537 G404A): T1 sequence (P55826 35-537 V365M) with M331V, G370A
In short: as §1

SMILES | inhibition at 0.78 ppm (AtPPO1 V365M) [%] | inhibition at 0.78 ppm (AtPPO1 T431R) [%] | inhibition at 0.78 ppm (AtPPO1 P413G) [%] | inhibition at 0.78 ppm (AtPPO1 G404A) [%] | inhibition at 6.25 ppm (AtPPO1 V365M) [%] | inhibition at 6.25 ppm (AtPPO1 T431R) [%] | inhibition at 6.25 ppm (AtPPO1 P413G) [%] | inhibition at 6.25 ppm (AtPPO1 G404A) [%]
C#CCN1C(=O)C(F)(F)Oc2cc(F)c(-n3c(=O)n(C)c(=S)n(C)c3=O)cc21 [Herbicide B, trifludimoxazin] | 3 | 25 | 16 | 12 | – | – | – | –
CCOC(=O)[C@]1(C)CC(c2cc(-n3c(=O)n(C)c(=S)n(C)c3=O)c(F)cc2Cl)=NO1 [Herbicide D, ethyl (5S)-3-[2-chloro-5-(3,5-dimethyl-2,6-dioxo-4-thioxo-1,3,5-triazinan-1-yl)-4-fluoro-phenyl]-5-methyl-4H-isoxazole-5-carboxylate] | – | – | – | – | 42 | 28 | 32 | 4
CC(C)N(C)S(=O)(=O)NC(=O)c1cc(-n2c(=O)cc(C(F)(F)F)n(C)c2=O)c(F)cc1Cl [Herbicide E, saflufenacil] | – | – | – | – | 22 | 56 | 59 | 2
